Literature values as cited in patent publication US20120040944A1 (APEX LABORATORIES PRIVATE LIMITED, priority 2009, published 2012).

Legend:
[1] = target: T1, CYP3A4 isozyme (Homo sapiens, UniProt P08684); settings: liver
T1 construct: host or cells: liver

[2] = not given; remark: listed apart in the source

T1 sequence (P08684 whole entry): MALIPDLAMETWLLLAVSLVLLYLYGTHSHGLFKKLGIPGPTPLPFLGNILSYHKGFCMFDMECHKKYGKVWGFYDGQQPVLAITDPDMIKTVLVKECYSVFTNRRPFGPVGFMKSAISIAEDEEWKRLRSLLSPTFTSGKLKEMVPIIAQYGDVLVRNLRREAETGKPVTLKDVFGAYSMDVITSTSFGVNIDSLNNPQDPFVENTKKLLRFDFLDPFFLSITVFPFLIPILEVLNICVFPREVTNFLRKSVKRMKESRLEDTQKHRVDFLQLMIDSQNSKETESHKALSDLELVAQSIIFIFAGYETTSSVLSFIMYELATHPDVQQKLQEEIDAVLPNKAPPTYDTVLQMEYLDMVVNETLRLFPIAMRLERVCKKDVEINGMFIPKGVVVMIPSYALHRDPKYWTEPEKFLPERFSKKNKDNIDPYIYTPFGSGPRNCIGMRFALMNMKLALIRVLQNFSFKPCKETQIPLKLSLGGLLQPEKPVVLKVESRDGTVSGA

Terminal t½ (in vivo): about 5 h
bioavailability (inhaled dose compared with IV administration): less than 1%
Excretion in the feces (up to 7 days): 74%
Excretion in the urine (up to 7 days): 8%
solubility in ethyl alcohol ([2]; ethyl alcohol): moderately soluble
solubility in octanol ([2]; octanol): slightly soluble
solubility in water ([2]; water): practically insoluble
Compound: C[C@@H]1C[C@H]2[C@@H]3CCC4=CC(=O)C=C[C@]4(C)[C@@]3(Cl)[C@@H](O)C[C@]2(C)[C@@]1(OC(=O)c1ccco1)C(=O)CCl [Mometasone Furoate, 9α,21-dichloro-11β,17-dihydroxy-16α-methylpregna-1,4-diene-3,20-dione 17-(2-furoate)]
metabolism [1]: primarily and extensively metabolized in the liver by the CYP3A4 isozyme
